Active and inactive are the calls of the source. No rule for the calls is given here.
Test system: rodent carcinogenicity bioassays, tumor incidence
Test: CCRIS carcinogenicity studies
Conditions: Dose: 0, Dose: 0
Description: The CCRIS database contains chemical records with carcinogenicity, mutagenicity, tumor promotion, and tumor inhibition test results. It was developed by the National Cancer Institute (NCI). Data are derived from studies cited in primary journals, current awareness tools, NCI reports, and other sources. Test results have been reviewed by experts in carcinogenesis and mutagenesis.
CCRIS provides historical information from the years 1985 - 2011. It is no longer updated.
This is an archive assay for CCRIS carcinogenicity studies.

O=[N+]([O-])c1ccc2ccc3c4ccccc4c([N+](=O)[O-])c4ccc1c2c43
carcinogen call (Species: RAT, Strain/Sex: F344/MALE, Route: SUBCUTANEOUS IMPLANT, 8, 40, 200, 1000 UG IN 50 µL BEESWAX/TRICAPRYLIN IMPLANTED FOR UP TO 45 WK (STUDY DURATION: 45 WK), 8, 40, 200, 1000 UG IN 50 µL BEESWAX/TRICAPRYLIN IMPLANTED FOR UP TO 45 WK (STUDY DURATION: 45 WK), Tumor Site: Type of Lesion: IMPLANT SITE: TUMOR): active; positive | carcinogen call (Species: RAT, Strain/Sex: F344/MALE, Route: SUBCUTANEOUS, 8, 40, 200, 1000 UG SUSPENDED IN BEESWAX/TRICAPRYLIN (1:1) ONCE (STUDY DURATION: LIFETIME), 8, 40, 200, 1000 UG SUSPENDED IN BEESWAX/TRICAPRYLIN (1:1) ONCE (STUDY DURATION: LIFETIME), Tumor Site: Type of Lesion: SUBCUTANEOUS TISSUE: TUMOR): active; positive

Cc1ccc(N=Nc2c(O)c(C(=O)O)cc3ccccc23)c(S(=O)(=O)O)c1
carcinogen call (Species: MOUSE, Strain/Sex: ICR/FEMALE, Route: DERMAL, 1 MG IN 0.1 ML DISTILLED WATER 2/WK FOR A MEAN TOTAL DOSE OF 130.6 MG (STUDY DURATION: 18 MO)): inactive; negative | carcinogen call (Species: MOUSE, Strain/Sex: ICR/MALE, Route: DERMAL, 1 MG IN 0.1 ML DISTILLED WATER 2/WK FOR A MEAN TOTAL DOSE OF 130.6 MG (STUDY DURATION: 18 MO)): inactive; negative

— PubChem BioAssay AID1259411 (Chemical Carcinogenesis Research Information System (CCRIS), 2018)
